We go through one compound from patent US12459915B2, “Biaryl derivative useful as diacylglycerol acyltransferase 2 inhibitor, and use thereof” (LG CHEM, LTD., priority 2020, dated 2025).

The assay has as its target Recombinant human DGAT2 protein (Homo sapiens (Human), UniProt Q96PD7). Kind of assay: Measurement of inhibitory effect against DGAT2 enzyme activity (SPA, Phospholipid Flash Plate). The settings on record: DGAT2-membrane protein from Sf-21 cells, [14C] oleoyl CoA, 1,2 sn-oleoyl glycerol, 37° C.; read-out: IC50 (concentration of the compound that inhibits TG production by 50%). Type of assay: biochemical. Here is the method: In order to prepare the pBacPAK9-DGAT2, which is DGAT2 expression vector, the human DGAT2 gene amplified by polymerase chain reaction (PCR) was cloned into the EcoR1 and Xho1 sites of the pBacPAK9 (clonctech) vector. The nucleotide sequence of the primers used in PCR was the forward primer 5′ […] and the reverse primer 5′ […]. The composition of the reaction solution was to contain 50 ng of cDNA clone (OriGene), 200 μM of dATP, dCTP, dTTP, dGTP, 200 nM of each primer, 1 unit of Tag DNA Polymerase (Toyobo), 1×PCR buffer, and the final volume was adjusted to 20 μl. […]
Recombinant human DGAT2 protein was expressed in Sf-21 cells, which are insect cells, by using the BacPack baculovirus expression system (Clontech). […] Protein concentration was quantified by using the BCA Protein Assay Kit (Thermo Scientific).
In vitro DGAT2 analysis was performed using a Phospholipid Flash Plate (PerkinElmer) based on the principle of SPA (Scintilation Proximity Assay). […] The next day, the amplified scintillation signal (cpm) in Topcounter (Packard) was measured to measure the degree of production of [14C]-labeled triacyl glycerol (TG) as a reaction product. The measured value when the compound was not treated was used as a positive control, and the measured value of the compound treated group was calculated as a relative % to measure the inhibition effect of the compound on TG production. […]

Recombinant human DGAT2 protein, sequence (Q96PD7 whole entry): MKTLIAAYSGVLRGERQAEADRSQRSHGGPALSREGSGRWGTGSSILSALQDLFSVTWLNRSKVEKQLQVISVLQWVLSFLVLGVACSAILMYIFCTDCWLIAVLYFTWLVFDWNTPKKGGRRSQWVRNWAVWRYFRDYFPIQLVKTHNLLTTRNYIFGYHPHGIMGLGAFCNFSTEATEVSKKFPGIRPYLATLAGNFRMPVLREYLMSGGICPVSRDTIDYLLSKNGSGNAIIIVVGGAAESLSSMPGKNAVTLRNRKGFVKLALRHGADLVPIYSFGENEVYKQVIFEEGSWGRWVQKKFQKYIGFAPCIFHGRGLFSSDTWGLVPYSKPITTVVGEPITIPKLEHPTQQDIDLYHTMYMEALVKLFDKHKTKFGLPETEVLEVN

For the compound `CCOc1ccccc1Oc1cccc(-c2cncc(NC(=O)Cc3ccc(CC(=O)O)cc3)n2)c1` [Example 11, 2-(4-(2-((6-(3-(2-ethoxyphenoxy)phenyl)pyrazin-2-yl)amino)-2-oxoethyl)phenyl)acetic acid], the IC50 amounted to 370 nM.
